Test results from paper PMC4454681, “Design and Evaluation of Antimalarial Peptides Derived from Prediction of Short Linear Motifs in Proteins Related to Erythrocyte Invasion” (PLoS ONE, 2015).
Entries after “also recorded” stand apart in the source; their conditions may differ. Where a SMILES comes first, the peptide text is derived from it. The star is where a group is joined. Palmitoyl = CCCCCCCCCCCCCCCC(=O)*

Legend:
[1] = tested on: 3D7 line of P. falciparum; test: Peptide inhibition of parasite growth (pLDH method); type: cell-based, Plasmodium falciparum; settings: for Growth inhibition: 100 μM peptide, 48 hour and 72 hour time points, asynchronous cultures, 2% haematocrit, 0.8% initial parasitaemia, max 0.5% DMSO, pLDH activity; for Growth inhibition / Concentration-response relationship of growth inhibition / Growth inhibition (dose-response curves): means of three experiments in duplicate; for Concentration-response relationship of growth inhibition: ten concentrations between 10 μM and 100 μM; for Concentration-response relationship of growth inhibition / Growth inhibition (dose-response curves): 48 and 72 hours
Procedure: P. falciparum line 3D7, adapted to grow in Albumax® (BioSciences, Dun Laoghaire, Ireland), was cultured in human erythrocytes (Irish Blood Transfusion Board, Ireland) in standard growth medium, in candle jars. Fresh erythrocytes were obtained every three weeks and washed according to lab protocols. Staining of blood smears was with Giemsa stain. The number of infected erythrocytes was counted by microscopy and the parasitaemia was calculated.
The antimalarial activity of test peptides (ChinaPeptides Co. Ltd, Shanghai, China) was determined in culture on the 3D7 line of P. falciparum using the parasite lactate dehydrogenase (pLDH) method in 96-well microtitre plates with modifications as previously described. Each test peptide was initially evaluated at three different concentrations, 100 μM, 10 μM and 1 μM, to determine activity range. The effect of the compounds was evaluated at 48 and 72 hours on growth of asynchronous cultures (cultured as described in the previous section) of P. falciparum, determined by the assay of pLDH activity. We used unsynchronised cultures in order (i) to make no prior assumptions about the stage of growth that might be inhibited and (ii) to avoid possible inhibitory effects of the synchronising protocol, e.g. sorbitol treatment, separation techniques, etc. The appropriate dilutions of the compounds were prepared in DMSO and added to the cultures of P. falciparum (2% haematocrit, 0.8% initial parasitaemia and a maximum of 0.5% DMSO). The same methodology was then used to assess the dose-response curves of peptides 5, 7, 10, 11, 12, 13 using ten concentrations between 10 μM and 100 μM.

[2] = tested on: P. falciparum late stages (trophozoite/schizont) introduced to fresh erythrocytes; test: Schizont to ring development assay; type: cell-based, Plasmodium falciparum; settings: 100 μM peptide, 2 hours with magnetically purified schizonts, washed, fresh erythrocytes 14–16 hours; rings counted in Giemsa smears; two experiments in triplicate
Source text: Routine erythrocytic P. falciparum cultures are an asynchronous culture consisting of rings, trophozoites, schizonts and merozoites. To enrich for the late stages of erythrocytic development, parasites at high parasitaemia (>15%) were subjected to magnetic selection. Parasitised erythrocytes were passed over a CS column (Miltenyi Biotec, Surrey, UK) which was mounted on a VarioMacs magnet (Miltenyi Biotec, Surrey, UK). The column was then washed with incomplete medium (RPMI 1640 supplemented with 25 mM HEPES, hypoxanthine [50 μg/ml], 0.16% w/v glucose) to remove unparasitised erythrocytes and was then removed from the magnet, a further wash with incomplete medium eluting late-stage parasitised erythrocytes.
Parasites synchronised to late stages (trophozoite/schizont) by magnetic selection were incubated with either the peptide being tested (100 μM concentration) or vehicle only control (DMSO) in complete medium for two hours. Treated schizonts were washed with complete medium and centrifugation at 350 xg for 10 minutes. Washing was repeated twice. Treated schizonts were then introduced to fresh erythrocytes at 2.5% hematocrit and incubated overnight (14–16 hours) with shaking. Parasitaemia was assessed by counting the number of ring stages in parasitised erythrocytes in Giemsa stained blood smears by light microscopy. This crude assay measures not just invasion but merozoite release and early ring-stage development.

[3] = tested on: erythrocytes from healthy human volunteers; settings: 100 μM peptide; approx. 1.5 × 10^8 erythrocytes, 15 minutes at 37°C, buffer A pH 7.4; absorbance 405 nm; compared with 0.1% (v/v) Triton X-100 = 100%; duplicate, three donors
Procedure: The hemolytic activity of the peptides was investigated using erythrocytes from healthy human volunteers. Blood was collected in the presence of 15% anticoagulant acid citrate glucose (ACD) (38 mM citric acid, 75 mM sodium citrate, 124 mM glucose) and was centrifuged at 150 xg for 10 minutes at room temperature. Plasma was removed and erythrocytes were washed twice with buffer A (pH 7.4) (130 mM sodium chloride, 10 mM sodium citrate, 9 mM sodium biocarbonate, 6 mM glucose, 0.9 mM magnesium chloride, 0.81 mM potassium hydrogen phosphate, 10 mM Tris), by cenrifugation at 1,000 xg for 5 minutes and resuspended in the same buffer. For the hemolysis assay approximately 1.5 × 10^8 erythrocytes were incubated with solutions of peptides 5, 10 or 12-Cam at 100 μM and 10 μM concentrations for 15 minutes at 37°C. After incubation, samples were centrifuged at 1,000 xg for 5 minutes and the supernatant was analysed for the presence of hemoglobin at an absorbance of 405 nm. Complete hemolysis was achieved using 0.1% (v/v) Triton X-100 yielding the 100% control value. The assay was run in duplicate with three different donors.

[4] = reason for exclusion from further investigation

| Molecule | Growth inhibition [1] | Concentration-response relationship of growth inhibition [1] | other results |
| --- | --- | --- | --- |
| CCCCCCCCCCCCCCCC(=O)O [Palmitate, reference compound] | no inhibitory effect | – | – |
| pal-KRKLKEEQRTKKIKID [Peptide 4, palmitoylated peptide from putative calcium-transporting ATPase Q76NN8] | – | – | Antimalarial activity (overall, growth inhibition assay) ([1]; tested at 100 μM, 10 μM and 1 μM): inactive |
| pal-SYTIRRLIKA [Peptide 12, palmitoylated peptide from glycophorin-B, common human polymorphism of peptide 11] | clearly observed | clear increases in growth inhibition with increasing concentration | Ability of merozoites to establish new infections in fresh erythrocytes (ring parasitaemia, % of control) [2]: almost totally reduced |
| pal-KHRKGNNA-NH2 [Peptide 13, palmitoylated, amidated peptide from complement receptor type 1] | some growth inhibition; also recorded: moderate activity | – | Growth inhibition (dose-response curves) ([1]; 10 μM): no inhibition |
| CCCCCCCCCCCCCCCC(=O)N[C@@H](CCCNC(=N)N)C(=O)N[C@@H](CCCNC(=N)N)C(=O)N[C@@H](CC(C)C)C(=O)N[C@H](C(=O)N[C@@H](CCCCN)C(=O)N[C@@H](CCCCN)C(=O)N[C@@H](CO)C(=O)N1CCC[C@H]1C(N)=O)[C@@H](C)CC [Peptide 10] (Palmitoyl-RRLIKKSP-NH2) | clearly observed | clear increases in growth inhibition with increasing concentration | Release of haemoglobin from erythrocytes [3]: approximately 50%; Ability of merozoites to establish new infections in fresh erythrocytes (ring parasitaemia, % of control) [2]: not as significant as that of the other two peptides |
| pal-AALQEPALQDAGESSRKEYFI [glycophorin-C peptide, palmitoylated peptide from glycophorin-C, preliminary testing only] | – | – | Activity in preliminary testing ([1]; preliminary testing, no further tests conducted): no activity |
| pal-KKKLYLYFE-NH2 [Peptide 3, shorter variation of peptide 2 from putative protein kinase Q8ILC4] | some growth inhibition | – | Solubility [4]: insolubility |
| CCCCCCCCCCCCCCCC(=O)N[C@@H](CO)C(=O)N[C@@H](Cc1ccc(O)cc1)C(=O)N[C@H](C(=O)N[C@H](C(=O)N[C@@H](CCCNC(=N)N)C(=O)N[C@@H](CCCNC(=N)N)C(=O)N[C@@H](CC(C)C)C(=O)N[C@H](C(=O)N[C@@H](CCCCN)C(=O)N[C@@H](C)C(N)=O)[C@@H](C)CC)[C@@H](C)CC)[C@@H](C)O [Peptide 12-Cam] (Palmitoyl-SYTIRRLIKA-NH2) | – | – | Growth inhibition of amidated peptide 12 versus its scrambled versions ([1]; 10 μM, 48 and 72 hours (Fig 4), three experiments in duplicate): more active than four scrambled controls |
| pal-SYSIRRLIKA [Peptide 11, palmitoylated peptide from glycophorin-B] | some growth inhibition | no such clear effect | – |
| CCCCCCCCCCCCCCCC(=O)N[C@@H](CO)C(=O)N[C@@H](CO)C(=O)N[C@@H](CO)C(=O)N[C@@H](CCCNC(=N)N)C(=O)N[C@@H](CCCCN)C(=O)N[C@@H](CC(N)=O)C(=O)N[C@@H](CCCNC(=N)N)C(=O)N[C@@H](Cc1ccccc1)C(=O)N[C@@H](CCCNC(=N)N)C(=O)N[C@@H](Cc1ccc(O)cc1)C(=O)N[C@@H](CC(C)C)C(=O)N1CCC[C@H]1C(=O)N[C@@H](Cc1ccccc1)C(N)=O [Peptide 5] (Palmitoyl-SSSRKNRFRYLPF-NH2) | clearly observed | clear increases in growth inhibition with increasing concentration | Ability of merozoites to establish new infections in fresh erythrocytes (ring parasitaemia, % of control) [2]: almost totally reduced |
| pal-KEEIIEIVFDENEEKYF [Peptide 7] | some growth inhibition; also recorded: moderate activity | – | Growth inhibition (dose-response curves) ([1]; 10 μM): no inhibition |
